Read-outs that look alike come from different tables or passages of the source. Each block holds one molecule with its values, some of them ahead of it.
Tests used:
[1] = target: T1, RosA (N,N-8-demethyl-8-amino-D-riboflavin dimethyltransferase) (Streptomyces davaonensis, UniProt K4RFM2); experiment: isothermal titration calorimetry; type: binding
T1 construct: full length, hexahistidine-tagged (pET24a(+)rosA-His6, pFJ02), tag kept, E. coli Rosetta 2 (DE3); 353 amino acids; subunit 38 kDa, native 77 kDa, homodimer
Description: isothermal titration calorimetry on RosA (N,N-8-demethyl-8-amino-D-riboflavin dimethyltransferase)

[2] = target: T1, RosA (N,N-8-demethyl-8-amino-D-riboflavin dimethyltransferase); experiment: initial rates of RoF formation at […] nm, Henderson plot (tight-binding inhibition); type: biochemical
[3] = target: N,N‐8‐demethyl‐8‐amino‐D‐riboflavin dimethyltransferase (RosA), hexahistidine‐tagged (Streptomyces davawensis); experiment: SEC; Superdex 200 10/300 GL, 25 °C, 50 mM Tris-HCl pH 8.0 with 100 mM NaCl, 0.5 mL/min, calibrated with standard proteins; native mass about 77 kDa against a subunit mass of 38 kDa
purified protein [4] = substrate: Cc1cc2nc3c(=O)[nH]c(=O)nc-3n(C[C@H](O)[C@H](O)[C@H](O)CO)c2cc1N; experiment: purified protein; type: biochemical, Streptomyces davaonensis; conditions: varied SAM (20-250 μM), 50 mM Tris/HCl pH 8.0, 100 mM NaCl, 25 °C, random-order bi-bi
purified protein [5] = substrate: C[S+](CC[C@H](N)C(=O)O)C[C@H]1O[C@@H](n2cnc3c(N)ncnc32)[C@H](O)[C@@H]1O; experiment: purified protein; conditions: varied AF (20-100 μM), 50 mM Tris/HCl pH 8.0, 100 mM NaCl, 25 °C, random-order bi-bi

Molecule: Cc1cc2nc3c(=O)[nH]c(=O)nc-3n(C[C@H](O)[C@H](O)[C@H](O)CO)c2cc1N [AF]
Kd ([1]; read-out: AF): 10 ± 1 µM

Molecule: N,N‐8‐demethyl‐8‐amino‐D‐riboflavin dimethyltransferase (RosA), hexahistidine‐tagged (enzyme)
stoichiometry N [3]: 2

B1: RosA (N,N-8-demethyl-8-amino-D-riboflavin dimethyltransferase) (Streptomyces davaonensis JCM 4913) (protein)
chain: MRPEPTEHPERTAAQRLYQYNVDLKVAFVLYAVAKLHLPDLLADGPRTTADLAAATGSDPSRLRRLLRAAAGADALREVPEDSFELAPMGDLLRSGHPRSMRGMTTFFAEPDVLAAYGDLVESVRTGVPAFQLRHREPLYDFLARPQHKEVRDEFDAAMVEFGQYFADDFLTSFDFGRFTRFADIGGGRGQFLAGVLTAVPSSTGVLVDGPAVAASAHKFLASQNLTERVEVRIGDFFDVLPTGCDAYVLRGVLEDWADADAVRLLVRIRQAMGDAPEARLLILDSVIGETGELGKVLDLDMLVLVEGEHRTRAQWDDLLARAGFDIVGIHPAGDVWAVIECRGTAG
notes: full length, hexahistidine-tagged (pET24a(+)rosA-His6, pFJ02), tag kept, E. coli Rosetta 2 (DE3); 353 amino acids; subunit 38 kDa, native 77 kDa, homodimer
Km (purified protein [4]): 4 µM | kcat (purified protein [4]): 0.001 s⁻¹ | Km (purified protein [5]): 70 µM | kcat (purified protein [5]): 0.001 s⁻¹

Further lines, results first:

Kd ([1]; read-out: RoF): 0.8 ± 0.05 µM | Ki [2]: 27 µM
Molecule: Cc1cc2nc3c(=O)[nH]c(=O)nc-3n(C[C@H](O)[C@H](O)[C@H](O)CO)c2cc1N(C)C [RoF]

Kd ([1]; read-out: SAH): 2 ± 0.1 µM | Ki [2]: 7 µM
Molecule: Nc1ncnc2c1ncn2[C@@H]1O[C@H](CSCC[C@H](N)C(=O)O)[C@@H](O)[C@H]1O [SAH]

Kd [1]: 22 ± 2 µM
Molecule: C[S+](CC[C@H](N)C(=O)O)C[C@H]1O[C@@H](n2cnc3c(N)ncnc32)[C@H](O)[C@@H]1O (some centres unmarked) [SAM]
